Experimental data: ChEMBL document CHEMBL2203015, “Synthesis and biological evaluation of 5-aryloxypyrazole derivatives bearing a rhodanine-3-aromatic acid as potential antimicrobial agents” (Bioorg Med Chem Lett, 2012)
Converted amounts (≈) assume the structure as drawn. The source made the active and inactive calls. The calls are words filed in the database; no cut-off is given here.

What was measured:
Staphylococcus aureus [1] = test: Potency index, ratio of MIC for norfloxacin to MIC for compound against quinolone-resistant Staphylococcus aureus CCARM 3519 incubated for 24 hrs serial dilution method; format: functional
Staphylococcus aureus [2] = test: Potency index, ratio of MIC for norfloxacin to MIC for compound against quinolone-resistant Staphylococcus aureus CCARM 3505 incubated for 24 hrs serial dilution method; format: functional
Staphylococcus aureus [3] = test: Potency index, ratio of MIC for norfloxacin to MIC for compound against multidrug-resistant Staphylococcus aureus CCARM 3506 incubated for 24 hrs serial dilution method; format: functional
Staphylococcus aureus [4] = test: Potency index, ratio of MIC for norfloxacin to MIC for compound against multidrug-resistant Staphylococcus aureus CCARM 3167 incubated for 24 hrs serial dilution method; format: functional
Staphylococcus aureus [5] = test: Antibacterial activity against quinolone-resistant Staphylococcus aureus CCARM 3519 incubated for 24 hrs serial dilution method; format: functional; details: CCARM 3519, 24 h
Staphylococcus aureus [6] = test: Antibacterial activity against quinolone-resistant Staphylococcus aureus CCARM 3505 incubated for 24 hrs serial dilution method; format: functional; details: CCARM 3505, 24 h
Staphylococcus aureus [7] = test: Antibacterial activity against multidrug-resistant Staphylococcus aureus CCARM 3506 incubated for 24 hrs serial dilution method; format: functional; details: CCARM 3506, 24 h
Staphylococcus aureus [8] = test: Antibacterial activity against multidrug-resistant Staphylococcus aureus CCARM 3167 incubated for 24 hrs serial dilution method; format: functional; details: CCARM 3167, 24 h
Escherichia coli [9] = test: Antibacterial activity against Escherichia coli 1356 incubated for 24 hrs serial dilution method; format: functional; details: Escherichia coli, 1356, 24 h
Staphylococcus aureus [10] = test: Antibacterial activity against Staphylococcus aureus KCTC 503 incubated for 24 hrs serial dilution method; format: functional; details: KCTC 503, 24 h
Staphylococcus aureus [11] = test: Antibacterial activity against Staphylococcus aureus KCTC 209 incubated for 24 hrs serial dilution method; format: functional; details: KCTC 209, 24 h
Staphylococcus aureus [12] = test: Antibacterial activity against Staphylococcus aureus RN 4220 incubated for 24 hrs serial dilution method; format: functional; details: RN 4220, 24 h
Staphylococcus aureus [13] = test: Antibacterial activity against quinolone-resistant Staphylococcus aureus CCARM 3519 at 64 ug/ml incubated for 24 hrs serial dilution method; format: functional, organism-based
Staphylococcus aureus [14] = test: Antibacterial activity against quinolone-resistant Staphylococcus aureus CCARM 3505 at 64 ug/ml incubated for 24 hrs serial dilution method; format: functional, organism-based
Staphylococcus aureus [15] = test: Antibacterial activity against multidrug-resistant Staphylococcus aureus CCARM 3506 at 64 ug/ml incubated for 24 hrs serial dilution method; format: functional, organism-based
Staphylococcus aureus [16] = test: Antibacterial activity against multidrug-resistant Staphylococcus aureus CCARM 3167 at 64 ug/ml incubated for 24 hrs serial dilution method; format: functional, organism-based
Escherichia coli [17] = test: Antibacterial activity against Escherichia coli 1356 at 64 ug/ml incubated for 24 hrs serial dilution method; format: functional, organism-based
Staphylococcus aureus [18] = test: Antibacterial activity against Staphylococcus aureus KCTC 503 at 64 ug/ml incubated for 24 hrs serial dilution method; format: functional, organism-based
Staphylococcus aureus [19] = test: Antibacterial activity against Staphylococcus aureus KCTC 209 at 64 ug/ml incubated for 24 hrs serial dilution method; format: functional, organism-based
Staphylococcus aureus [20] = test: Antibacterial activity against Staphylococcus aureus RN 4220 at 64 ug/ml incubated for 24 hrs serial dilution method; format: functional, organism-based

In the case of `Cc1nn(-c2ccccc2)c(Oc2c(Cl)cccc2Cl)c1/C=C1\SC(=S)N([C@@H](Cc2ccccc2)C(=O)O)C1=O`, the Ratio (Staphylococcus aureus [1]) is reported as 4, the Ratio (Staphylococcus aureus [2]) is reported as 4 and the Ratio (Staphylococcus aureus [3]) is reported as 2. The Ratio (Staphylococcus aureus [4]) was 2, the MIC (Staphylococcus aureus [5]) was 8 µg/mL (≈ 13.1 µM) and the MIC (Staphylococcus aureus [6]) was 8 µg/mL (≈ 13.1 µM). The MIC (Staphylococcus aureus [7]) was 8 µg/mL (≈ 13.1 µM), the MIC (Staphylococcus aureus [8]) was 4 µg/mL (≈ 6.55 µM) and the MIC (Escherichia coli [9]) was over 64 µg/mL. For the same compound, the MIC (Staphylococcus aureus [10]) was over 64 µg/mL, the MIC (Staphylococcus aureus [11]) was over 64 µg/mL and the MIC (Staphylococcus aureus [12]) was 4 µg/mL (≈ 6.55 µM).
With `Cc1nn(-c2ccccc2)c(Oc2c(Cl)cccc2Cl)c1C=O` the Activity (Staphylococcus aureus [13]) was “inactive”, the Activity (Staphylococcus aureus [14]) was “inactive” and the Activity (Staphylococcus aureus [15]) was “inactive”. For the same compound, the Activity (Staphylococcus aureus [16]) was “inactive”, the Activity (Escherichia coli [17]) was “inactive” and the Activity (Staphylococcus aureus [18]) was “inactive”. The Activity (Staphylococcus aureus [19]) was “inactive” and the Activity (Staphylococcus aureus [20]) was “inactive”.
With `Cc1nn(-c2ccccc2)c(Oc2ccccc2Cl)c1C=O` the Activity (Staphylococcus aureus [13]) was “inactive”, the Activity (Staphylococcus aureus [14]) was “inactive” and the Activity (Staphylococcus aureus [15]) was “inactive”. The Activity (Staphylococcus aureus [16]) was “inactive”, the Activity (Escherichia coli [17]) was “inactive” and the Activity (Staphylococcus aureus [18]) was “inactive”. For the same compound, the Activity (Staphylococcus aureus [19]) was “inactive” and the Activity (Staphylococcus aureus [20]) was “inactive”.
For `Cc1nn(-c2ccccc2)c(Oc2ccccc2Cl)c1/C=C1\SC(=S)N([C@@H](Cc2ccccc2)C(=O)O)C1=O`, the Ratio (Staphylococcus aureus [1]) was 4, the Ratio (Staphylococcus aureus [2]) was 4 and the Ratio (Staphylococcus aureus [3]) was 2. It also gave a Ratio (Staphylococcus aureus [4]) of 2, an MIC (Staphylococcus aureus [5]) of 8 µg/mL (≈ 13.9 µM) and an MIC (Staphylococcus aureus [6]) of 8 µg/mL (≈ 13.9 µM). It also gave an MIC (Staphylococcus aureus [7]) of 8 µg/mL (≈ 13.9 µM), an MIC (Staphylococcus aureus [8]) of 8 µg/mL (≈ 13.9 µM) and an MIC (Escherichia coli [9]) of over 64 µg/mL. For the same compound, the MIC (Staphylococcus aureus [10]) was over 64 µg/mL, the MIC (Staphylococcus aureus [11]) was over 64 µg/mL and the MIC (Staphylococcus aureus [12]) was 8 µg/mL (≈ 13.9 µM).
In the case of `Cc1nn(-c2ccccc2)c(Oc2ccc(Cl)cc2Cl)c1C=O`, the Activity (Staphylococcus aureus [13]) is reported as “inactive”, the Activity (Staphylococcus aureus [14]) is reported as “inactive” and the Activity (Staphylococcus aureus [15]) is reported as “inactive”. For the same compound, the Activity (Staphylococcus aureus [16]) was “inactive”, the Activity (Escherichia coli [17]) was “inactive” and the Activity (Staphylococcus aureus [18]) was “inactive”. For the same compound, the Activity (Staphylococcus aureus [19]) was “inactive” and the Activity (Staphylococcus aureus [20]) was “inactive”.
For `Cc1ccc(Oc2c(/C=C3\SC(=S)N([C@@H](Cc4ccccc4)C(=O)O)C3=O)c(C)nn2-c2ccccc2)cc1`, the Ratio (Staphylococcus aureus [1]) was 4, the Ratio (Staphylococcus aureus [2]) was 4 and the Ratio (Staphylococcus aureus [3]) was 2. It also gave a Ratio (Staphylococcus aureus [4]) of 2, an MIC (Staphylococcus aureus [5]) of 4 µg/mL (≈ 7.2 µM) and an MIC (Staphylococcus aureus [6]) of 4 µg/mL (≈ 7.2 µM). For the same compound, the MIC (Staphylococcus aureus [7]) was 8 µg/mL (≈ 14.4 µM), the MIC (Staphylococcus aureus [8]) was 4 µg/mL (≈ 7.2 µM) and the MIC (Escherichia coli [9]) was over 64 µg/mL. The MIC (Staphylococcus aureus [10]) was over 64 µg/mL, the MIC (Staphylococcus aureus [11]) was over 64 µg/mL and the MIC (Staphylococcus aureus [12]) was 4 µg/mL (≈ 7.2 µM).
With `Cc1nn(-c2ccccc2)c(Oc2ccc(F)cc2)c1/C=C1\SC(=S)N([C@@H](Cc2ccccc2)C(=O)O)C1=O` the Ratio (Staphylococcus aureus [1]) was 4, the Ratio (Staphylococcus aureus [2]) was 4 and the Ratio (Staphylococcus aureus [3]) was 2. It also gave a Ratio (Staphylococcus aureus [4]) of 2, an MIC (Staphylococcus aureus [5]) of 8 µg/mL (≈ 14.3 µM) and an MIC (Staphylococcus aureus [6]) of 8 µg/mL (≈ 14.3 µM). It also gave an MIC (Staphylococcus aureus [7]) of 8 µg/mL (≈ 14.3 µM), an MIC (Staphylococcus aureus [8]) of 4 µg/mL (≈ 7.15 µM) and an MIC (Escherichia coli [9]) of over 64 µg/mL. It also gave an MIC (Staphylococcus aureus [10]) of over 64 µg/mL, an MIC (Staphylococcus aureus [11]) of over 64 µg/mL and an MIC (Staphylococcus aureus [12]) of 8 µg/mL (≈ 14.3 µM).
`Cc1nn(-c2ccccc2)c(Oc2ccccc2)c1/C=C1\SC(=S)N([C@@H](Cc2ccccc2)C(=O)O)C1=O` gave a Ratio (Staphylococcus aureus [1]) of 4, a Ratio (Staphylococcus aureus [2]) of 4 and a Ratio (Staphylococcus aureus [3]) of 2. For the same compound, the Ratio (Staphylococcus aureus [4]) was 2, the MIC (Staphylococcus aureus [5]) was 8 µg/mL (≈ 14.8 µM) and the MIC (Staphylococcus aureus [6]) was 8 µg/mL (≈ 14.8 µM). The MIC (Staphylococcus aureus [7]) was 4 µg/mL (≈ 7.38 µM), the MIC (Staphylococcus aureus [8]) was 4 µg/mL (≈ 7.38 µM) and the MIC (Escherichia coli [9]) was over 64 µg/mL. The MIC (Staphylococcus aureus [10]) was over 64 µg/mL, the MIC (Staphylococcus aureus [11]) was over 64 µg/mL and the MIC (Staphylococcus aureus [12]) was 8 µg/mL (≈ 14.8 µM).
For `Cc1cccc(Oc2c(/C=C3\SC(=S)N([C@@H](Cc4ccccc4)C(=O)O)C3=O)c(C)nn2-c2ccccc2)c1`, the Ratio (Staphylococcus aureus [1]) was 4, the Ratio (Staphylococcus aureus [2]) was 4 and the Ratio (Staphylococcus aureus [3]) was 2. The Ratio (Staphylococcus aureus [4]) was 2, the MIC (Staphylococcus aureus [5]) was 8 µg/mL (≈ 14.4 µM) and the MIC (Staphylococcus aureus [6]) was 4 µg/mL (≈ 7.2 µM). It also gave an MIC (Staphylococcus aureus [7]) of 4 µg/mL (≈ 7.2 µM), an MIC (Staphylococcus aureus [8]) of 4 µg/mL (≈ 7.2 µM) and an MIC (Escherichia coli [9]) of over 64 µg/mL. The MIC (Staphylococcus aureus [10]) was over 64 µg/mL, the MIC (Staphylococcus aureus [11]) was over 64 µg/mL and the MIC (Staphylococcus aureus [12]) was 4 µg/mL (≈ 7.2 µM).
In the case of `Cc1nn(-c2ccccc2)c(Oc2cccc(C(F)(F)F)c2)c1/C=C1\SC(=S)N([C@@H](Cc2ccccc2)C(=O)O)C1=O`, the Ratio (Staphylococcus aureus [1]) is reported as 4, the Ratio (Staphylococcus aureus [2]) is reported as 4 and the Ratio (Staphylococcus aureus [3]) is reported as 2. For the same compound, the Ratio (Staphylococcus aureus [4]) was 2, the MIC (Staphylococcus aureus [5]) was 8 µg/mL (≈ 13.1 µM) and the MIC (Staphylococcus aureus [6]) was 4 µg/mL (≈ 6.56 µM). For the same compound, the MIC (Staphylococcus aureus [7]) was 4 µg/mL (≈ 6.56 µM), the MIC (Staphylococcus aureus [8]) was 4 µg/mL (≈ 6.56 µM) and the MIC (Escherichia coli [9]) was over 64 µg/mL. For the same compound, the MIC (Staphylococcus aureus [10]) was over 64 µg/mL, the MIC (Staphylococcus aureus [11]) was over 64 µg/mL and the MIC (Staphylococcus aureus [12]) was 4 µg/mL (≈ 6.56 µM).
